The source of these data is ChEMBL document CHEMBL1139805, “Marine natural products from the Turkish sponge Agelas oroides that inhibit the enoyl reductases from Plasmodium falciparum, Mycobacterium tuberculosis and Escherichia coli” (Bioorg Med Chem, 2007).

Test [1] concerns Trypanosoma cruzi. As to the kind of experiment: Antitrypanosomal activity against Trypanosoma cruzi after 72 hrs. It counts as functional, organism-based.
In test [2] the test system is L6. As to the kind of experiment: Cytotoxicity against rat L6 cells after 72 hrs. It counts as cell-based. As to conditions: L6, 72 h.
Test [3] concerns the target T1, Enoyl-acyl-carrier protein reductase (Plasmodium falciparum, UniProt Q965D5).
T1 sequence (Q965D5 whole entry): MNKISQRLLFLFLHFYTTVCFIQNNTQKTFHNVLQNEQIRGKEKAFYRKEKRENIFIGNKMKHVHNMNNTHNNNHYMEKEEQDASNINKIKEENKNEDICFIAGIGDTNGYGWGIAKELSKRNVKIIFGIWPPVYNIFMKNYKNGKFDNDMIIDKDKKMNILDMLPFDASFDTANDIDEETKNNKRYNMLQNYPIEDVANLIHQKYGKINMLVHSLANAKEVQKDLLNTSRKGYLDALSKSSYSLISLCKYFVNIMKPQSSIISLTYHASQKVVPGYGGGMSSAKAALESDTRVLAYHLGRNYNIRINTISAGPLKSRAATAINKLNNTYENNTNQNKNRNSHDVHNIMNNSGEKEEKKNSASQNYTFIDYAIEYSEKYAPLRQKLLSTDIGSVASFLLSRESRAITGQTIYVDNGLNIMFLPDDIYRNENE
As to the kind of experiment: Inhibition of Plasmodium falciparum FabI.

Test [4] has as its system Plasmodium falciparum. As to the kind of experiment: Antimalarial activity against chloroquine-resistant, pyrimethamine-resistant Plasmodium falciparum K1 after 48 hrs. It counts as functional, organism-based. As to conditions: K1, 48 h.
In test [5] the test system is Trypanosoma brucei rhodesiense. As to the kind of experiment: Antitrypanosomal activity against Trypanosoma brucei rhodesiense after 72 hrs by Alamar blue assay. It counts as functional, organism-based.
Test [6] concerns Leishmania donovani. As to the kind of experiment: Antileishmanial activity against Leishmania donovani after 72 hrs by Alamar blue assay. It counts as functional, organism-based. On the technique in general: The colour change of resazurin is a common sign of viable cells or microbes.
Test [7] concerns the target T1, Enoyl-acyl-carrier protein reductase. Put plainly: Inhibition of Plasmodium falciparum FabI in presence of variable NADH levels.
The target is the same in test [8]. As to the kind of experiment: Inhibition of Plasmodium falciparum FabI in presence of variable crotonyl-coA level.

The IC50 is the point on the concentration scale where inhibition reaches its midpoint. Higher therefore signals a need for much substance. For orientation: Ki means the equilibrium dissociation constant of an inhibitor or competing ligand from its target.

SMILES strings stand for the structures. In brackets after ≈: the same amount, converted by molar mass.

With `O=C(Cn1ccnc1[N+](=O)[O-])NCc1ccccc1` [BENZNIDAZOLE], the IC50 in test [1] came to 0.17 mg/L (≈ 0.653 µM).
`CC[C@@H](CC[C@@H](C)[C@H]1CC[C@H]2C3=CC[C@H]4C[C@@H](O)CC[C@]4(C)[C@H]3CC[C@]12C)C(C)C`: the 50% inhibitory concentration (IC50) in test [2] is over 90 mg/L; in test [3], 43.4 µM; in test [1], over 30 mg/L; in test [4], 16.1 mg/L (≈ 38.8 µM); in test [5], 14.2 mg/L (≈ 34.2 µM); in test [6], 29.5 mg/L (≈ 71.1 µM).
On to `NC/C=C/c1cnc(N)[nH]1`, for which the IC50 in test [2] was 0.7 mg/L (≈ 5.07 µM); in test [3], over 724 µM; in test [1], 2.5 mg/L (≈ 18.1 µM); in test [4], 7.4 mg/L (≈ 53.6 µM); in test [5], 2.4 mg/L (≈ 17.4 µM); in test [6] it was 13.1 mg/L (≈ 94.8 µM).
Turning to `Nc1ncc(/C=C/CNC(=O)c2cc(Br)c(Br)[nH]2)[nH]1` [OROIDIN], the IC50 in test [2] was 88.6 mg/L (≈ 228 µM); in test [3], 0.771 µM; in test [1], over 30 mg/L; in test [4] it was 3.9 mg/L (≈ 10 µM); in test [5], 17.3 mg/L (≈ 44.5 µM); in test [6], over 30 mg/L. Besides, the Ki in test [7] came to 0.8 µM; in test [8], 0.4 µM.
With `COC(=O)c1cc(Br)c(Br)[nH]1`, the concentration for half-maximal inhibition (IC50) in test [2] is over 90 mg/L; in test [3] it was over 353 µM; in test [1], over 30 mg/L; in test [4], over 50 mg/L; in test [5], 13.3 mg/L (≈ 47 µM); in test [6], over 30 mg/L.
For the molecule `NCCS(=O)(=O)O` [TAURINE], the half-maximal inhibitory concentration (IC50) in test [2] is over 90 mg/L; in test [3] it was over 799 µM; in test [1], over 30 mg/L; in test [4], over 50 mg/L; in test [5], 83.4 mg/L (≈ 666 µM); in test [6] it was over 30 mg/L.
Consider `Oc1cc(Cl)ccc1Oc1ccc(Cl)cc1Cl` [TRICLOSAN], for which, in test [3], half-maximal inhibition (IC50) was put at 0.0484 µM.
In turn, `COc1cc([C@@H]2c3cc4c(cc3[C@H](O)[C@H]3COC(=O)[C@H]23)OCO4)cc(OC)c1OC` [PODOFILOX] showed a 50% inhibitory concentration (IC50) in test [2] of 0.009 mg/L (≈ 0.0217 µM).
For `O=C(O)C(F)(F)F.O=C(O)c1cc(Br)c(Br)[nH]1`, the IC50 is over 90 mg/L in test [2]; 104 µM in test [3]; over 30 mg/L in test [1]; 49.9 mg/L in test [4]; 25.2 mg/L in test [5]; 5.8 mg/L in test [6].
As to `Nc1ncc(/C=C/CNC(=O)c2cc(Br)c(Br)[nH]2)[nH]1.O=C(O)C(F)(F)F` [OROIDIN TFA SALT], the IC50 was 76.4 mg/L in test [2]; 9.94 µM in test [3]; over 30 mg/L in test [1]; 7.9 mg/L in test [4]; 12.2 mg/L in test [5]; 15.4 mg/L in test [6].
As to `O=C(O)c1cc(Br)c(Br)[nH]1`, the IC50 in test [2] is over 90 mg/L; in test [3] it was over 372 µM; in test [1] it was over 30 mg/L; in test [4], over 50 mg/L; in test [5], 20.9 mg/L (≈ 77.7 µM); in test [6], 7.9 mg/L (≈ 29.4 µM).
In test [5], `Nc1nc(N)nc(Nc2ccc([As]3SCC(CO)S3)cc2)n1` (centres undefined) [MELARSOPROL] gave a 50% inhibitory concentration (IC50) of 0.0027 mg/L.
